Experimental data: paper PMC2892117 (Bioorganic & medicinal chemistry, 2010)
Structures can show the parent of a compound that is named as a salt.

Columns and labels:
T. b. r. STIB 900 = assay: STIB900 mouse model for acute African trypanosomiasis; format: in vivo; details: for responders at 25 mg/kg / responders at 5 mg/kg: Mus musculus, 1440 h, read-out: Cures; for Survival / Survival (days): average days of mice survival; for Cures: number of mice that survive and are parasite free for 60 days
[1] = tested on: Trypanosoma brucei rhodesiense STIB900; assay: microbe, parasite or virus in culture; details: RHODESIENSE|STIB900, read-out: T. b. r. IC50
Plasmodium falciparum K1 = assay: In vitro assay with P. f. K1 strain; format: cell-based; details: K1, read-out: P. f. IC50

| Structure (SMILES) | responders at 25 mg/kg (T. b. r. STIB 900; po) | Survival (T. b. r. STIB 900; po, 4 × 25 mg/kg) | responders at 5 mg/kg (T. b. r. STIB 900; ip) | also measured |
| --- | --- | --- | --- | --- |
| Cl.Cl.N/C(=N\O)c1ccc(-c2cnc(-c3ccc(/C(N)=N\O)cn3)s2)nc1 [6g, 2,5-Bis(3-N-hydroxyamidinopyridin-6-yl)thiazole dihydrochloride] | 0% | 9 days |  |  |
| CO/N=C(/N)c1ccc(-c2cnc(-c3ccc(/C(N)=N\OC)cc3)s2)cc1.Cl.Cl [7a, 2,5-Bis-(4-N-methoxyamidinophenyl)thiazole dihydrochloride] | 0% | 41 days |  |  |
| CO/N=C(\N)c1ccc(-c2ccc(-c3ccc(/C(N)=N/OC)cn3)o2)cc1 [IId, reference compound] |  |  |  | Survival (days) (T. b. r. STIB 900; po, 4 × 5 mg/kg): >60 >60 days; Cures (T. b. r. STIB 900; po, 4 × 5 mg/kg): 4/4 4/4; Survival (days) (T. b. r. STIB 900; po, 4 × 25 mg/kg): >60 >60 days; Cures (T. b. r. STIB 900; po, 4 × 25 mg/kg): 4/4 4/4 |
| CO/N=C(\N)c1ccc(-c2cnc(-c3ccc(/C(N)=N\OC)nc3)s2)cn1.Cl.Cl [7e, 2,5-Bis(2-N-methoxyamidinopyridin-5-yl)thiazole dihydrochloride] | 25% | >47.25 days |  |  |
| Cl.Cl.N=C(N)c1ccc(-c2ncc(-c3ccc(C(=N)N)nc3)s2)cc1 [5d, 2-(4-Amidinophenyl)-5-(2-amidinopyridin-5-yl)thiazole dihydrochloride] |  |  | 0% | Survival (T. b. r. STIB 900; ip, 4 × 5 mg/kg): >36 days |
| CO/N=C(\N)c1ccc(-c2cnc(-c3ccc(/C(N)=N/OC)nc3)s2)cc1.Cl [7b, 5-(4-N-methoxyamidinophenyl)-2-(2-N-methoxyamidinopyridin-5-yl)thiazole dihydrochlodide] | 0% | 42.75 days |  |  |
| Cl.Cl.N/C(=N\O)c1ccc(-c2cnc(-c3ccc(/C(N)=N\O)nc3)s2)cn1 [6e, 2,5-Bis-(2-N-hydroxyamidinopyridin-5-yl)thiazole dihydrochloride] | 25% | >37.5 days |  |  |
| N/C(=N/O)c1ccc(-c2cnc(-c3ccc(/C(N)=N\O)cc3)s2)cc1 [6a, 2,5-Bis-(4-N-hydroxyamidinophenyl)thiazole dihydrochloride] | 0% |  |  |  |
| N=C(N)c1ccc(-c2cnc(-c3ccc(C(=N)N)cn3)s2)cc1 [5c, 5-(4-Amidinophenyl)-2-(3-amidinopyridin-6-yl)thiazole dihydrochloride] |  |  | 0% |  |
| Cl.Cl.N/C(=N\O)c1ccc(-c2cnc(-c3ccc(/C(N)=N/O)nc3)s2)cc1 [6b, 5-(4-N-hydroxyamidinophenyl)-2(2-N-hydroxyamidinopyridin-5-yl)thiazole dihydrochloride] | 0% | 37.5 days |  |  |
| Cl.Cl.N/C(=N\O)c1ccc(-c2cnc(-c3ccc(/C(N)=N\O)cn3)s2)cc1 [6c, 5-(4-N-hydroxyamidinophenyl)-2-(3-N-hydroxyamidinopyridin-6-yl)thiazole dihydrochloride] | 0% | 24 days |  |  |
| N=C(N)c1ccc(OCCCCCOc2ccc(C(=N)N)cc2)cc1 [I, pentamidine, reference compound] |  |  | 50% |  |
| CO/N=C(\N)c1ccc(-c2cnc(-c3ccc(/C(N)=N\OC)cn3)s2)cc1.Cl.Cl [7c, 5-(4-N-methoxyamidinophenyl)-2-(3-N-methoxyamidinopyridin-6-yl)thiazole dihydrochloride] | 0% | 35 days |  |  |
| CO/N=C(\N)c1ccc(-c2cnc(-c3ccc(/C(N)=N\OC)cn3)s2)nc1 [7g, 2,5-Bis(3-N-methoxyamidinopyridin-6-yl)thiazole dihydrochloride] | 0% |  |  |  |
| N=C(N)c1ccc(-c2ncc(-c3ccc(C(=N)N)nc3)s2)nc1 [5f, 2-(3-Amidinopyridin-6-yl)-5-(2-amidinopyridin-5-yl)thiazole dihydrochloride] |  |  | 0% |  |
| N=C(N)c1ccc(-c2cnc(-c3ccc(C(=N)N)nc3)s2)cc1 [5b, 5-(4-Amidinophenyl)-2-(2-amidinopyridin-5-yl)thiazole dihydrochloride] |  |  | 0% |  |
| Cl.Cl.N=C(N)c1ccc(-c2cnc(-c3ccc(C(=N)N)cc3)s2)cc1 [5a, 2,5-Bis(4-amidinophenyl)thiazole dihydrochloride] |  |  | 25% | Survival (T. b. r. STIB 900; ip, 4 × 5 mg/kg): >44.5 days; Cures (T. b. r. STIB 900; ip, 4 × 5 mg/kg, 5 mg/kg): 1 of four and one of four |
| Cl.Cl.N=C(N)c1ccc(-c2cnc(-c3ccc(C(=N)N)cn3)s2)nc1 [5g, 2,5-Bis-(3-amidinopyridin-6-yl)thiazole dihydrochloride] |  |  | 0% | Survival (T. b. r. STIB 900; ip, 4 × 5 mg/kg): 21.5 days |
| Cl.Cl.N/C(=N\O)c1ccc(-c2ncc(-c3ccc(/C(N)=N\O)nc3)s2)cc1 [6d, 2-(4-N-hydroxyamidinophenyl)-5-(2-N-hydroxyamidinopyridin-5yl)thiazole dihydrochloride] | 0% | 36.75 days |  |  |
| N=C(N)c1ccc(-c2ccc(-c3ccc(C(=N)N)cc3)o2)cc1 [IIa, furamidine] |  |  |  | Survival (T. b. r. STIB 900; ip, 4 × 5 mg/kg): >46 days; IC50 [1]: 3.2 nM |
| CONC(=N)c1ccc(-c2ccc(-c3ccc(C(=N)NOC)cc3)o2)cc1 [IIb, Pafuramidine, reference compound] |  | > 60 days |  | Cures (T. b. r. STIB 900; po, 4 × 5 mg/kg): 0/4; Cures (T. b. r. STIB 900; po, 4 × 25 mg/kg): 4/4 |
| N=C(N)c1ccc(-c2ccc(-c3ccc(C(=N)N)cn3)o2)cc1 [IIc, azafuramidine, reference compound] |  |  | 75% | IC50 (Plasmodium falciparum K1): 6.5 nM; Survival (T. b. r. STIB 900; ip, 4 × 5 mg/kg): >54.5 days; IC50 [1]: 7 nM |
| N=C(N)c1ccc(-c2ccc(-c3ccc(C(=N)N)cc3)s2)cc1 [IIe, reference compound] |  |  | 50% | Survival (T. b. r. STIB 900; ip, 4 × 5 mg/kg): >48.75 days |
| Cl.Cl.N=C(N)c1ccc(-c2cnc(-c3ccc(C(=N)N)nc3)s2)cn1 [5e, 2,5-Bis(2-amidinopyridin-5-yl)thiazole dihydrochloride] |  |  | 0% | Survival (T. b. r. STIB 900; ip, 4 × 5 mg/kg): 50.5 days |
